Assay [1] relates to influenza A virus (A/PR/8/34). In words: microbe, parasite or virus in culture. In kind it is cell-based.
The test system of assay [2] is A/PR/8/34 influenza virus. In words: microbe, parasite or virus in culture. The class given is cell-based.
Setting [3] is: Influenza A virus, PR/8, MDCK, MDCK cells infected with A/PR/8/34, cell protection (CPE), read-out: IC50 (mean all).
Where [4] appears, read: Influenza A virus, PR/8, MDCK, MDCK cells infected with A/PR/8/34, bDNA viral RNA, read-out: EC50 (mean all).
[5] abbreviates: Influenza A virus, PR/8, MDCK, mean all, A/PR/8/34 infected MDCK cells, CPE assay, read-out: IC50.
Setting [6] is: Influenza A virus, PR/8, MDCK, mean all, A/PR/8/34 influenza virus in MDCK cells, bDNA assay, read-out: EC50.

Structures are written as SMILES. Where two headings read alike, the source gives them in different places.

On to `CCCNC(=O)N1CCCC(Nc2nc(-c3c[nH]c4ncc(Cl)cc34)ncc2F)C1` (centres unmarked) [Compound 196], for which the IC50 (commonly the point on the concentration scale where inhibition reaches its midpoint) in assay [1] (read-out: IC50 (mean all)) is less than 5 µM. In addition, the EC50 (in general, the concentration that produces a half-maximal response) in assay [2] (read-out: EC50 (mean all)) is less than 5 µM.

Consider `CCC(=O)N1CCCC[C@@H]1CNc1nc(-c2c[nH]c3ncc(Cl)cc23)ncc1F` [Compound 208, (R)-1-(2-((2-(5-chloro-1H-pyrrolo[2,3-b]pyridin-3-yl)-5-fluoropyrimidin-4-ylamino)methyl)piperidin-1-yl)propan-1-one], for which the IC50 in assay [1] (setting [3]) was less than 5 µM. In addition, the EC50 in assay [2] (setting [4]) was less than 5 µM.

For `O=C(c1ccc(F)cc1)N1CCCC[C@@H]1CNc1nc(-c2c[nH]c3ncc(Cl)cc23)ncc1F` [Compound 209, (R)-(2-((2-(5-chloro-1H-pyrrolo[2,3-b]pyridin-3-yl)-5-fluoropyrimidin-4-ylamino)methyl)piperidin-1-yl)(4-fluorophenyl)methanone], in assay [1] (setting [3]), the IC50 is less than 5 µM. Further, the EC50 in assay [2] (setting [4]) was less than 5 µM.

As to `O=C(c1cccc(C(F)(F)F)c1)N1CCCC[C@@H]1CNc1nc(-c2c[nH]c3ncc(Cl)cc23)ncc1F` [Compound 210, (R)-(2-((2-(5-chloro-1H-pyrrolo[2,3-b]pyridin-3-yl)-5-fluoropyrimidin-4-ylamino)methyl)piperidin-1-yl)(3-(trifluoromethyl)phenyl)methanone], in assay [1] (setting [3]), the IC50 was greater than 20 µM. Besides, in assay [2] (setting [4]), the EC50 is 5 to 10 µM.

As for `C=CCCC(=O)N1CCCC[C@@H]1CNc1nc(-c2c[nH]c3ncc(Cl)cc23)ncc1F` [Compound 279, (R)-1-(2-((2-(5-chloro-1H-pyrrolo[2,3-b]pyridin-3-yl)-5-fluoropyrimidin-4-ylamino)methyl)piperidin-1-yl)pent-4-en-1-one], the IC50 in assay [1] (setting [3]) is less than 5 µM. In addition, the EC50 in assay [2] (setting [4]) is less than 5 µM.

Turning to `O=C(CC(F)(F)F)N1CCCC[C@@H]1CNc1nc(-c2c[nH]c3ncc(Cl)cc23)ncc1F` [Compound 280, (R)-1-(2-((2-(5-chloro-1H-pyrrolo[2,3-b]pyridin-3-yl)-5-fluoropyrimidin-4-ylamino)methyl)piperidin-1-yl)-3,3,3-trifluoropropan-1-one], the IC50 in assay [1] (setting [3]) is less than 5 µM. Besides, in assay [2] (setting [4]), the EC50 was less than 5 µM.

Consider `C#CCCCC(=O)N1CCCC[C@@H]1CNc1nc(-c2c[nH]c3ncc(Cl)cc23)ncc1F` [Compound 281, (R)-1-(2-((2-(5-chloro-1H-pyrrolo[2,3-b]pyridin-3-yl)-5-fluoropyrimidin-4-ylamino)methyl)piperidin-1-yl)hex-5-yn-1-one], for which, in assay [1] (setting [3]), the IC50 is less than 5 µM. Besides, in assay [2] (setting [4]), the EC50 is less than 5 µM.

For `O=C(CCc1ccccc1)N1CCCC[C@@H]1CNc1nc(-c2c[nH]c3ncc(Cl)cc23)ncc1F` [Compound 293, (R)-1-(2-((2-(5-chloro-1H-pyrrolo[2,3-b]pyridin-3-yl)-5-fluoropyrimidin-4-ylamino)methyl)piperidin-1-yl)-3-phenylpropan-1-one], the half-maximal inhibitory concentration (IC50) in assay [1] (setting [3]) is less than 5 µM. The EC50 in assay [2] (setting [4]) is less than 5 µM.

As to `CCCC(=O)N1CCCC[C@@H]1CNc1nc(-c2c[nH]c3ncc(Cl)cc23)ncc1F` [Compound 295, (R)-1-(2-((2-(5-chloro-1H-pyrrolo[2,3-b]pyridin-3-yl)-5-fluoropyrimidin-4-ylamino)methyl)piperidin-1-yl)butan-1-one], the IC50 in assay [1] (setting [3]) was less than 5 µM. In addition, the concentration for a half-maximal effect (EC50) in assay [2] (setting [4]) is less than 5 µM.

As to `CCCS(=O)(=O)N1CCC[C@H](Nc2nc(-c3c[nH]c4ncc(Cl)cc34)ncc2F)C1` [Compound 306, (S)-2-(5-chloro-1H-pyrrolo[2,3-b]pyridin-3-yl)-5-fluoro-N-(1-(propylsulfonyl)-piperidin-3-yl)pyrimidin-4-amine], the IC50 in assay [1] (setting [5]) is less than 5 µM. Besides, the EC50 in assay [2] (setting [6]) was less than 5 µM.

Consider `CCCS(=O)(=O)N1CCC[C@@H](Nc2nc(-c3c[nH]c4ncc(Cl)cc34)ncc2F)C1` [Compound 316, (R)-2-(5-chloro-1H-pyrrolo[2,3-b]pyridin-3-yl)-5-fluoro-N-(1-(propylsulfonyl)piperidin-3-yl)pyrimidin-4-amine], for which the IC50 in assay [1] (setting [5]) lay in the range of 5 to 20 µM. Also, in assay [2] (setting [6]), the EC50 was less than 5 µM.

Turning to `O=C(C1CC1)N1CCC[C@@H](Nc2nc(-c3c[nH]c4ncc(Cl)cc34)ncc2F)C1` [Compound 317], the IC50 in assay [1] (setting [5]) lay within 5 to 20 µM. Moreover, in assay [2] (setting [6]), the EC50 is less than 5 µM.

Consider `CC(C)CC(=O)N1CCC[C@@H](Nc2nc(-c3c[nH]c4ncc(Cl)cc34)ncc2F)C1` [Compound 318], for which the IC50 in assay [1] (setting [5]) is greater than 20 µM. For the same compound, the EC50 in assay [2] (setting [6]) is less than 5 µM.

Take `O=C(C1CCC1)N1CCC[C@@H](Nc2nc(-c3c[nH]c4ncc(Cl)cc34)ncc2F)C1` [Compound 319]: in assay [1] (setting [5]), the concentration for half-maximal inhibition (IC50) was greater than 20 µM. In assay [2] (setting [6]), the EC50 is less than 5 µM.

With `COCCC(=O)N1CCC[C@@H](Nc2nc(-c3c[nH]c4ncc(Cl)cc34)ncc2F)C1` [Compound 320], the IC50 in assay [1] (setting [5]) lay in the range of 5 to 20 µM. In addition, in assay [2] (setting [6]), the EC50 is 5 to 10 µM.

As for `CCS(=O)(=O)N1CCC[C@@H](Nc2nc(-c3c[nH]c4ncc(Cl)cc34)ncc2F)C1` [Compound 321, (R)-2-(5-chloro-1H-pyrrolo[2,3-b]pyridin-3-yl)-N-(1-(ethylsulfonyl)piperidin-3-yl)-5-fluoropyrimidin-4-amine], the IC50 in assay [1] (setting [5]) lay within 5 to 20 µM. The EC50 in assay [2] (setting [6]) was less than 5 µM.

For `CC(C)S(=O)(=O)N1CCC[C@@H](Nc2nc(-c3c[nH]c4ncc(Cl)cc34)ncc2F)C1` [Compound 322, (R)-2-(5-chloro-1H-pyrrolo[2,3-b]pyridin-3-yl)-5-fluoro-N-(1-(isopropylsulfonyl)-piperidin-3-yl)pyrimidin-4-amine], the IC50 in assay [1] (setting [5]) is greater than 20 µM. The EC50 in assay [2] (setting [6]) was less than 5 µM.

In the case of `CCCCNC(=O)N1CCC[C@H](Nc2nc(-c3c[nH]c4ncc(Cl)cc34)ncc2F)C1` [Compound 323], the concentration for half-maximal inhibition (IC50) in assay [1] (setting [5]) was greater than 20 µM. Moreover, in assay [2] (setting [6]), the EC50 was less than 5 µM.

Turning to `CCCNC(=O)N1CCC[C@H](Nc2nc(-c3c[nH]c4ncc(Cl)cc34)ncc2F)C1` [Compound 324], the IC50 in assay [1] (setting [5]) lay within 5 to 20 µM. In addition, the EC50 in assay [2] (setting [6]) was less than 5 µM.

With `O=C(C1CC1)N1CCC[C@H](CNc2nc(-c3c[nH]c4ncc(Cl)cc34)ncc2F)C1` [Compound 325, (R)-(3-((2-(5-chloro-1H-pyrrolo[2,3-b]pyridin-3-yl)-5-fluoropyrimidin-4-ylamino)methyl)piperidin-1-yl)(cyclopropyl)methanone], the IC50 in assay [1] (setting [5]) was 5 to 20 µM. Besides, the EC50 in assay [2] (setting [6]) is less than 5 µM.

With `CCCCC(=O)N1CCCC[C@@H]1CNc1nc(-c2c[nH]c3ncc(Cl)cc23)ncc1F` [Compound 326, (R)-1-(2-((2-(5-chloro-1H-pyrrolo[2,3-b]pyridin-3-yl)-5-fluoropyrimidin-4-ylamino)methyl)piperidin-1-yl)pentan-1-one], the IC50 in assay [1] (setting [5]) was 5 to 20 µM. In addition, the EC50 in assay [2] (setting [6]) was less than 5 µM.

`COCCC(=O)N1CCC[C@H](CNc2nc(-c3c[nH]c4ncc(Cl)cc34)ncc2F)C1` [Compound 327, (R)-1-(3-((2-(5-chloro-1H-pyrrolo[2,3-b]pyridin-3-yl)-5-fluoropyrimidin-4-ylamino)methyl)piperidin-1-yl)-3-methoxypropan-1-one]: the half-maximal inhibitory concentration (IC50) in assay [1] (setting [5]) is less than 5 µM. Further, the 50% effective concentration (EC50) in assay [2] (setting [6]) was less than 5 µM.

On to `O=S(=O)(CCCCl)N1CCCC[C@@H]1CNc1nc(-c2c[nH]c3ncc(Cl)cc23)ncc1F` [Compound 330, (R)-2-(5-chloro-1H-pyrrolo[2,3-b]pyridin-3-yl)-N-((1-(3-chloropropylsulfonyl)piperidin-2-yl)methyl)-5-fluoropyrimidin-4-amine], for which, in assay [1] (setting [5]), the IC50 was less than 5 µM. The EC50 in assay [2] (setting [6]) was less than 5 µM.

With `CC(C)CC(=O)N1CCC[C@H](Nc2nc(-c3c[nH]c4ncc(Cl)cc34)ncc2F)C1` [Compound 332], the concentration for half-maximal inhibition (IC50) in assay [1] (setting [5]) is less than 5 µM. In assay [2] (setting [6]), the EC50 was less than 5 µM.

`CCNC(=O)N1CCCC[C@@H]1CNc1nc(-c2c[nH]c3ncccc23)ncc1F` [Compound 373, (R)—N-ethyl-2-((5-fluoro-2-(1H-pyrrolo[2,3-b]pyridin-3-yl)pyrimidin-4-ylamino)-methyl)piperidine-1-carboxamide]: the IC50 in assay [1] (setting [5]) is 5 to 20 µM. Further, the EC50 in assay [2] (setting [6]) was greater than 10 µM.

For `CCCNC(=O)N1CCCC[C@@H]1CNc1nc(-c2c[nH]c3ncccc23)ncc1F` [Compound 375, (R)-2-((5-fluoro-2-(1H-pyrrolo[2,3-b]pyridin-3-yl)pyrimidin-4-ylamino)methyl)-N-propylpiperidine-1-carboxamide], the IC50 in assay [1] (setting [5]) fell in the range of 5 to 20 µM. Also, the EC50 in assay [2] (setting [6]) was in the range of 5 to 10 µM.

On to `CN1CCC(Nc2nc(-c3c[nH]c4ncc(Cl)cc34)ncc2F)C1=O` (centres unmarked) [Compound 379], for which the IC50 in assay [1] (setting [5]) is 5 to 20 µM. For the same compound, the concentration for a half-maximal effect (EC50) in assay [2] (setting [6]) is less than 5 µM.

`CS(=O)(=O)N1CCCC[C@@H]1CNc1nc(-c2c[nH]c3ncc(Cl)cc23)ncc1F` [Compound 381, (R)-2-(5-chloro-1H-pyrrolo[2,3-b]pyridin-3-yl)-5-fluoro-N-((1-(methylsulfonyl)-piperidin-2-yl)methyl)pyrimidin-4-amine]: the IC50 in assay [1] (setting [5]) is less than 5 µM. Besides, the EC50 in assay [2] (setting [6]) is less than 5 µM.

For `CCS(=O)(=O)N1CCCC[C@@H]1CNc1nc(-c2c[nH]c3ncc(Cl)cc23)ncc1F` [Compound 382, (R)-2-(5-chloro-1H-pyrrolo[2,3-b]pyridin-3-yl)-5-fluoro-N-((1-(ethylsulfonyl)-piperidin-2-yl)methyl)pyrimidin-4-amine], the IC50 in assay [1] (setting [5]) was less than 5 µM. Further, in assay [2] (setting [6]), the EC50 was less than 5 µM.

Turning to `O=S(=O)(CC(F)(F)F)N1CCCC[C@@H]1CNc1nc(-c2c[nH]c3ncc(Cl)cc23)ncc1F` [Compound 383, (R)-2-(5-chloro-1H-pyrrolo[2,3-b]pyridin-3-yl)-5-fluoro-N-((1-(2,2,2-trifluoro-ethylsulfonyl)-piperidin-2-yl)methyl)pyrimidin-4-amine], the IC50 in assay [1] (setting [5]) is less than 5 µM. The EC50 in assay [2] (setting [6]) is less than 5 µM.

`CS(=O)(=O)N1CCC[C@H](Nc2nc(-c3c[nH]c4ncc(Cl)cc34)ncc2F)C1` [Compound 389, (S)-2-(5-chloro-1H-pyrrolo[2,3-b]pyridin-3-yl)-5-fluoro-N-(1-(methylsulfonyl)piperidin-3-yl)pyrimidin-4-amine]: in assay [1] (setting [5]), the IC50 was less than 5 µM. The EC50 in assay [2] (setting [6]) is less than 5 µM.

Values taken from patent US8829007B2 (priority 2009, dated 2014).
